Reference: the NIST ThermoML archive (doi:10.1007/s10765-010-0737-5)

Experiments:
[1] = xn = mol fraction of the nth substance listed; settings: Liquid, x2 = 0; for viscosity: 101 kPa, Capillary tube (Ostwald / Ubbelohde) method; for mass density: 101.3 kPa
[2] = Liquid; for viscosity: 101 kPa, Capillary tube (Ostwald / Ubbelohde) method; for mass density: 101.3 kPa

CC(C)OC(C)C [diisopropyl ether] + CC(C)CCl
[1]
Settings | mass density [kg/m3] | viscosity [mPa·s]
283.15 K | 733.833 | 0.3646
288.15 K | 728.692 | 0.3486
293.15 K | 723.509 | 0.334
298.15 K | 718.289 | 0.3178
303.15 K | 713.032 | 0.3001
308.15 K | 707.727 | 0.2857
313.15 K | 702.378 | 0.2723

CC(C)(C)Cl [2-chloro-2-methylpropane]
[2]
Settings | mass density [kg/m3] | viscosity [mPa·s]
283.15 K | 855.249 | 0.598
288.15 K | 849.243 | 0.5538
293.15 K | 843.191 | 0.5135
298.15 K | 837.096 | 0.4768
303.15 K | 830.958 | 0.4438
308.15 K | 824.772 | 0.4196
313.15 K | 818.536 | 0.3904

CC(C)OC(C)C [diisopropyl ether]
[2]
Settings | mass density [kg/m3] | viscosity [mPa·s]
283.15 K | 733.833 | 0.3646
288.15 K | 728.692 | 0.3486
293.15 K | 723.509 | 0.334
298.15 K | 718.289 | 0.3178
303.15 K | 713.032 | 0.3001
308.15 K | 707.727 | 0.2857
313.15 K | 702.378 | 0.2723

CCC(C)Cl (stereo unspecified) [2-chlorobutane]
[2]
Settings | mass density [kg/m3] | viscosity [mPa·s]
283.15 K | 884.34 | 0.4631
288.15 K | 878.756 | 0.4365
293.15 K | 873.13 | 0.4167
298.15 K | 867.474 | 0.3993
303.15 K | 861.779 | 0.38
308.15 K | 856.044 | 0.3615
313.15 K | 850.266 | 0.3443

CC(C)OC(C)C [diisopropyl ether] + CC(C)(C)Cl
[1]
Settings | mass density [kg/m3] | viscosity [mPa·s]
283.15 K | 733.833 | 0.3646
288.15 K | 728.692 | 0.3486
293.15 K | 723.509 | 0.334
298.15 K | 718.289 | 0.3178
303.15 K | 713.032 | 0.3001
308.15 K | 707.727 | 0.2857
313.15 K | 702.378 | 0.2723

CC(C)CCl [1-chloro-2-methylpropane]
[2]
Settings | mass density [kg/m3] | viscosity [mPa·s]
283.15 K | 888.845 | 0.5155
288.15 K | 883.211 | 0.4833
293.15 K | 877.539 | 0.454
298.15 K | 871.533 | 0.4296
303.15 K | 866.096 | 0.4112
308.15 K | 860.319 | 0.3921
313.15 K | 853.902 | 0.3726

CC(C)OC(C)C [diisopropyl ether] + CCC(C)Cl
[1]
Settings | mass density [kg/m3] | viscosity [mPa·s]
283.15 K | 733.833 | 0.3646
288.15 K | 728.692 | 0.3486
293.15 K | 723.509 | 0.334
298.15 K | 718.289 | 0.3178
303.15 K | 713.032 | 0.3001
308.15 K | 707.727 | 0.2857
313.15 K | 702.378 | 0.2723

CC(C)OC(C)C [diisopropyl ether] + CCCCCl
[1]
Settings | mass density [kg/m3] | viscosity [mPa·s]
283.15 K | 733.833 | 0.3646
288.15 K | 728.692 | 0.3486
293.15 K | 723.509 | 0.334
298.15 K | 718.289 | 0.3178
303.15 K | 713.032 | 0.3001
308.15 K | 707.727 | 0.2857
313.15 K | 702.378 | 0.2723

CCCCCl [1-chlorobutane]
[2]
Settings | mass density [kg/m3] | viscosity [mPa·s]
283.15 K | 897.339 | 0.4993
288.15 K | 891.855 | 0.4701
293.15 K | 886.335 | 0.4433
298.15 K | 880.705 | 0.4214
303.15 K | 875.204 | 0.405
308.15 K | 869.585 | 0.3885
313.15 K | 863.882 | 0.3642
